In ChEMBL document CHEMBL5625205, “3-Methoxy-2-phenylimidazo[1,2-b]pyridazines highly active against Mycobacterium tuberculosis and Mycobacterium marinum” (Eur J Med Chem, 2023):
Converted amounts (≈) assume the structure as drawn. The source made the active and inactive calls. No cut-off for these calls is given here.

What was measured:
[1] = system: Mycobacterium tuberculosis; assay: Antimycobacterial activity against Mycobacterium tuberculosis H37Ra assessed as inhibition of bacterial growth measured for 5 days by luminometer; assay type: functional; conditions: 120 h, time 5 day
Mycobacterium marinum = assay: Antimycobacterial activity against Mycobacterium marinum assessed as inhibition of bacterial growth measured for 5 days by luminometer; assay type: functional; conditions: 120 h, time 5 day
[2] = system: Mycobacterium tuberculosis; assay: Antimycobacterial activity against Mycobacterium tuberculosis H37Ra infected in mouse assessed as reduction in relative light unit in lung at 30 to 300 mg/kg,po administrated once daily for 5 days; assay type: functional, organism-based; conditions: dose 30-300 mg/kg, time 5.0 day
[3] = Octanol-water distribution coefficient, logD of the compound at pH 7.4 by HPLC analysis; assay type: physicochemical
[4] = Kinetic solubility of compound in DMSO at pH 2 incubated for 30 mins by laser nephelometry; assay type: physicochemical; conditions: read-out: Kinetic_solubility
[5] = Kinetic solubility of compound in DMSO at pH 6.5 incubated for 30 mins by laser nephelometry; assay type: physicochemical; conditions: read-out: Kinetic_solubility
[6] = Metabolic stability in mouse liver microsomes assessed as half life incubated for 60 mins in presence of NADPH; assay type: ADME, Microsome
[7] = Metabolic stability in mouse liver microsomes assessed as intrinsic clearance incubated for 60 mins in presence of NADPH; assay type: ADME, Microsome; conditions: read-out: CLH

With `COc1c(-c2ccccc2)nc2ccc(SCc3ccccc3)nn12` the MIC90 [1] was 1.44 µM (≈ 0.5 µg/mL) and the MIC90 (Mycobacterium marinum) was 0.72 µM (≈ 0.25 µg/mL).

With `COc1cccc(CNc2ccc3nc(-c4ccc(C(F)(F)F)cc4)c(OC)n3n2)c1` the MIC90 [1] was 11.7 µM (≈ 5.01 µg/mL) and the MIC90 (Mycobacterium marinum) was 23.3 µM (≈ 9.98 µg/mL).

In the case of `COc1cccc(COc2ccc3nc(-c4cccc(C(F)(F)F)c4)c(OC)n3n2)c1`, the MIC90 [1] is reported as > 230 µM.

For `COc1c(Cc2ccccc2)nc2ccc(SCc3cccc(C)c3)nn12`, the MIC90 [1] was 87.9 µM (≈ 33 µg/mL) and the MIC90 (Mycobacterium marinum) was 26.6 µM (≈ 9.99 µg/mL).

`COc1cccc(CSc2ccc3nc(-c4ccc(Br)cc4)c(OC)n3n2)c1` showed an MIC90 [1] of 11 µM (≈ 5 µg/mL) and an MIC90 (Mycobacterium marinum) of 11 µM (≈ 5.02 µg/mL).

`CCOc1c(-c2ccccc2F)nc2ccc(SCc3cccc(OC)c3)nn12` gave an MIC90 [1] of 3.05 µM (≈ 1.25 µg/mL) and an MIC90 (Mycobacterium marinum) of 3.05 µM (≈ 1.25 µg/mL).

Molecule `COc1ccc(CSc2ccc3nc(-c4ccc(F)cc4)c(OC)n3n2)cc1` has an MIC90 [1] of 6.32 µM (≈ 2.5 µg/mL) and an MIC90 (Mycobacterium marinum) of 12.6 µM (≈ 4.98 µg/mL).

In the case of `Brc1c(-c2ccccc2)nc2ccc(OCc3ccccc3)nn12`, the MIC90 [1] is reported as > 260 µM and the MIC90 (Mycobacterium marinum) is reported as > 260 µM.

For `COc1cccc(CNc2ccc3nc(-c4cccc(C(F)(F)F)c4)c(OC)n3n2)c1`, the MIC90 [1] was 23.3 µM (≈ 9.98 µg/mL) and the MIC90 (Mycobacterium marinum) was 9.34 µM (≈ 4 µg/mL).

For `COc1cccc(CNc2ccc3nc(-c4ccc(C)cc4)c(OC)n3n2)c1`, the MIC90 [1] was 13.4 µM (≈ 5.02 µg/mL) and the MIC90 (Mycobacterium marinum) was 13.4 µM (≈ 5.02 µg/mL).

Work on `COc1cccc(CNc2ccc3nc(-c4cccc(F)c4)c(OC)n3n2)c1` yielded an MIC90 [1] of 52.9 µM (≈ 20 µg/mL) and an MIC90 (Mycobacterium marinum) of 26.4 µM (≈ 9.99 µg/mL).

In the case of `COc1cccc(CSc2ccc3nc(-c4ccccc4F)c(OC)n3n2)c1`, the MIC90 [1] is reported as 1.26 µM (≈ 0.498 µg/mL), the MIC90 (Mycobacterium marinum) is reported as 0.15 µM (≈ 0.0593 µg/mL) and the Activity [2] is reported as “inactive”.

`COc1cccc(CSc2ccc3nc(-c4ccc(F)cc4)c(OC)n3n2)c1` gave an MIC90 [1] of 0.63 µM (≈ 0.249 µg/mL), an MIC90 (Mycobacterium marinum) of 0.63 µM (≈ 0.249 µg/mL) and a logD [3] of 4.9. The solubility kinetic at 0.5 h [4] was 1.6 µg/mL (≈ 4.05 µM), the solubility kinetic at 0.5 h [5] was < 1.6 µg/mL and the half-life [6] was < 2 min. The microsomal CLint [7] was > 866 µL/min/mg and the Activity [2] was “inactive”.

With `COc1c(-c2cccc(N)c2)nc2ccc(N(C)Cc3ccccc3)nn12` the MIC90 [1] was 34.8 µM (≈ 12.5 µg/mL) and the MIC90 (Mycobacterium marinum) was 13.9 µM (≈ 5 µg/mL).

Work on `COc1c(-c2ccc(F)cc2F)nc2ccc(SCc3ccsc3)nn12` yielded an MIC90 [1] of 10.3 µM (≈ 4.01 µg/mL) and an MIC90 (Mycobacterium marinum) of 2.57 µM (≈ 1 µg/mL).

Molecule `COc1cccc(CS(=O)(=O)c2ccc3nc(-c4ccc(F)cc4)c(OC)n3n2)c1` has an MIC90 [1] of 234 µM (≈ 100 µg/mL) and an MIC90 (Mycobacterium marinum) of 234 µM (≈ 100 µg/mL).

In the case of `COc1c(C)nc2ccc(Oc3ccccc3)nn12`, the MIC90 [1] is reported as > 117 µM.

In the case of `CN(Cc1ccccc1)c1ccc2nc(-c3ccc(C(F)(F)F)cc3)c(O)n2n1`, the MIC90 [1] is reported as > 251 µM and the MIC90 (Mycobacterium marinum) is reported as 251 µM (≈ 100 µg/mL).

Work on `COc1c(-c2ccccc2F)nc2ccc(N(C)Cc3ccccc3)nn12` yielded an MIC90 [1] of 0.69 µM (≈ 0.25 µg/mL), an MIC90 (Mycobacterium marinum) of 0.69 µM (≈ 0.25 µg/mL) and a logD [3] of 4.5. For the same molecule, the solubility kinetic at 0.5 h [4] was 25 µg/mL (≈ 69 µM), the solubility kinetic at 0.5 h [5] was < 1.6 µg/mL and the half-life [6] was 4 min. The microsomal CLint [7] was 405 µL/min/mg and the Activity [2] was “inactive”.

In the case of `COc1cccc(CNc2ccc3nc(-c4cccc([N+](=O)[O-])c4)c(OC)n3n2)c1`, the MIC90 [1] is reported as > 240 µM and the MIC90 (Mycobacterium marinum) is reported as > 240 µM.

In the case of `COc1c(-c2ccccc2)nc2ccc(SC)nn12`, the MIC90 [1] is reported as 18.4 µM (≈ 4.99 µg/mL) and the MIC90 (Mycobacterium marinum) is reported as 36.9 µM (≈ 10 µg/mL).

For `COc1cccc(CSc2ccc3nc(-c4ccc(F)cc4)cn3n2)c1`, the MIC90 [1] was 27.4 µM (≈ 10 µg/mL) and the MIC90 (Mycobacterium marinum) was 2.74 µM (≈ 1 µg/mL).

Work on `Cc1c(-c2ccccc2)nc2ccc(OCc3ccccc3)nn12` yielded an MIC90 [1] of 317 µM (≈ 100 µg/mL) and an MIC90 (Mycobacterium marinum) of 317 µM (≈ 100 µg/mL).

In the case of `COc1c(-c2ccc(Cl)cc2)nc2ccc(N(C)Cc3ccccc3)nn12`, the MIC90 [1] is reported as 6.6 µM (≈ 2.5 µg/mL) and the MIC90 (Mycobacterium marinum) is reported as 6.6 µM (≈ 2.5 µg/mL).

In the case of `COc1ccc(-c2nc3ccc(SCc4ccccc4)nn3c2OC)cc1`, the MIC90 [1] is reported as > 260 µM.

Work on `CCOc1c(-c2ccccc2)nc2ccc(SCc3cccc(OC)c3)nn12` yielded an MIC90 [1] of 2.55 µM (≈ 0.998 µg/mL) and an MIC90 (Mycobacterium marinum) of 1.28 µM (≈ 0.501 µg/mL).

With `COc1c(-c2ccccc2)nc2ccc(Sc3ccccc3)nn12` the MIC90 [1] was 150 µM (≈ 50 µg/mL).

Molecule `COc1c(-c2ccccc2)nc2ccc(SCc3cc(C)on3)nn12` has an MIC90 [1] of 284 µM (≈ 100 µg/mL) and an MIC90 (Mycobacterium marinum) of 284 µM (≈ 100 µg/mL).

For `COc1c(-c2ccccc2)nc2ccc(SCc3ccccc3Cl)nn12`, the MIC90 [1] was > 260 µM.

For `N#Cc1c(-c2ccccc2)nc2ccc(OCc3ccccc3)nn12`, the MIC90 [1] was > 300 µM and the MIC90 (Mycobacterium marinum) was > 300 µM.

For `COc1cccc(COc2ccc3nc(-c4ccc(C(F)(F)F)cc4)c(OC)n3n2)c1`, the MIC90 [1] was > 230 µM and the MIC90 (Mycobacterium marinum) was > 230 µM.

In the case of `COc1cccc(CSc2ccc3nc(-c4ccc(OC)c(OC)c4)c(OC)n3n2)c1`, the MIC90 [1] is reported as > 220 µM and the MIC90 (Mycobacterium marinum) is reported as > 220 µM.

In the case of `CN(Cc1ccccc1)c1ccc2nc(-c3ccc(Br)cc3)c(O)n2n1`, the MIC90 [1] is reported as 244 µM (≈ 99.9 µg/mL) and the MIC90 (Mycobacterium marinum) is reported as > 244 µM.

In the case of `Ic1c(-c2ccccc2)nc2ccc(OCc3ccccc3)nn12`, the MIC90 [1] is reported as > 230 µM and the MIC90 (Mycobacterium marinum) is reported as > 230 µM.

With `COc1c(-c2ccccc2)nc2ccc(N(C)Cc3ccccc3)nn12` the MIC90 [1] was 2.9 µM (≈ 0.999 µg/mL) and the MIC90 (Mycobacterium marinum) was 1.45 µM (≈ 0.499 µg/mL).

`COc1c(-c2ccc(C(F)(F)F)cc2)nc2ccc(N(C)Cc3ccccc3)nn12` gave an MIC90 [1] of 6.06 µM (≈ 2.5 µg/mL) and an MIC90 (Mycobacterium marinum) of 12.1 µM (≈ 4.99 µg/mL).

For `COc1cccc(CSc2ccc3nc(-c4ccc(F)cc4F)c(CN4CCOCC4)n3n2)c1`, the MIC90 [1] was 207 µM (≈ 99.9 µg/mL) and the MIC90 (Mycobacterium marinum) was 207 µM (≈ 99.9 µg/mL).

Molecule `COCCOc1c(-c2ccccc2)nc2ccc(SCc3ccccc3)nn12` has an MIC90 [1] of 255 µM (≈ 99.8 µg/mL) and an MIC90 (Mycobacterium marinum) of 63.9 µM (≈ 25 µg/mL).
